Columns and labels:
[1] = Metabolic stability in hepatic microsomes (mouse); format: in vitro ADME; settings: mouse hepatic microsomes 0.5 mg/ml, compound 1 μM, 37° C., pH 7.4, 30 min
Description: (§1) The test compound was dissolved in DMSO at the final concentration of 1 μM and pre-incubated for 10 min at 37° C. in potassium phosphate buffer pH 7.4 together with mouse or human hepatic microsomes (Xenotech) at the final concentration of 0.5 mg/ml.
(§2) After the pre-incubation the reaction was started by adding the cofactor mixture (NADP, G6P, G6P-DH); aliquots were taken at time 0 and 30 min, added to acetonitrile in order to stop the reaction. After centrifugation the supernatant was separated and analyzed by LC-MS/MS.
(§3) A control sample without cofactor was always studied in parallel in order to check the chemical stability of the test compound.
(§4) Two reference compounds of known metabolic stability 7-ethoxycoumarin and propranolol were present each time to access the validity of the experiment.
(§5) A fixed concentration of verapamil was added in each sample as internal standard for the LC-MS/MS analysis.
(§6) The percentage of the compound remaining after 30 min incubation period was calculated according the following equation: [area at time 30 min]/[area at time 0 min]*100%.

[2] = Metabolic stability in hepatic microsomes (human); format: in vitro ADME; settings: human hepatic microsomes 0.5 mg/ml, compound 1 μM, 37° C., pH 7.4, 30 min
Description: as §1, §2, §3, §4, §5, §6

[3] = test system: HDAC (nuclear extract of HeLa cells); test: Assay of enzyme inhibition of HDAC (BIOMOL Kit); format: biochemical; settings: substrate 116 μM
Description: The in-vitro activity of HDAC inhibitors was assayed by means of a biochemical assay using a BIOMOL Kit, according to the recommended experimental conditions. […] The samples were incubated for 10 minutes at room temperature and then exposed to a developer (15 minutes at room temperature). In this last step a fluorophore was produced, whose fluorescence was measured using an excitation wavelength of 355 nm and an emission at 460 nm.

CN1CCN(c2ccccc2C(=O)/C=C/c2ccc(/C=C/C(=O)NO)cc2)CC1 [Example 1, (E)-N-Hydroxy-3-(4-{(E)-3-[2-(4-methyl-piperazin-1-yl)-phenyl]-3-oxo-propenyl}-phenyl)-acrylamide]
Met. mouse (percentage of the compound remaining after 30 min incubation) [1]: 33.81%
Met. human (percentage of the compound remaining after 30 min incubation) [2]: 38.16%

CN(C)C1CCN(c2ccc(C(=O)/C=C/c3ccc(/C=C/C(=O)NO)cc3)cc2)CC1 [Example 4, (E)-3-(4-{(E)-3-[4-(4-Dimethylamino-piperidin-1-yl)-phenyl]-3-oxo-propenyl}-phenyl)-N-hydroxy-acrylamide]
Met. mouse (percentage of the compound remaining after 30 min incubation) [1]: 14.00%
Met. human (percentage of the compound remaining after 30 min incubation) [2]: 41.88%

CN1CCN(Cc2ccc(C(=O)/C=C/c3ccc(/C=C/C(=O)NO)cc3)cc2)CC1 [Example 7, (E)-N-Hydroxy-3-(4-{(E)-3-[4-(4-methyl-piperazin-1-yl-methyl)-phenyl]-3-oxo-propenyl}-phenyl)-acrylamide]
Met. mouse (percentage of the compound remaining after 30 min incubation) [1]: 16.75%
Met. human (percentage of the compound remaining after 30 min incubation) [2]: 61.16%

O=C(/C=C/c1ccc(/C=C/C(=O)c2ccc(N3CCNCC3)cc2)cc1)NO [Example 15, (E)-N-Hydroxy-3-{4-[(E)-3-(4-piperazin-1-yl-phenyl)-3-oxo-propenyl]-phenyl}-acrylamide]
Met. mouse (percentage of the compound remaining after 30 min incubation) [1]: 30.5%
Met. human (percentage of the compound remaining after 30 min incubation) [2]: 42.58%

CN1CCN(c2cc(Cl)cc(C(=O)/C=C/c3ccc(/C=C/C(=O)NO)cc3)c2)CC1 [Example 25, (E)-3-(4-{(E)-3-[3-Chloro-5-(4-methyl-piperazin-1-yl)-phenyl]-3-oxo-propenyl}-phenyl)-N-hydroxy-acrylamide]
Met. mouse (percentage of the compound remaining after 30 min incubation) [1]: 84.89%
Met. human (percentage of the compound remaining after 30 min incubation) [2]: 57.28%
IC50 [3]: 35 nM

O=C(/C=C/c1ccc(/C=C/C(=O)c2ccc(CN3CCNCC3)cc2)cc1)NO [Example 26, (E)-N-Hydroxy-3-{4-[(E)-3-oxo-3-(4-piperazin-1-ylmethyl-phenyl)-propenyl]-phenyl}-acrylamide]
Met. mouse (percentage of the compound remaining after 30 min incubation) [1]: 42.41%
Met. human (percentage of the compound remaining after 30 min incubation) [2]: 50.84%

CC(=O)N1CCN(Cc2ccc(C(=O)/C=C/c3ccc(/C=C/C(=O)NO)cc3)cc2)CC1 [Example 30, (E)-3-(4-{(E)-3-[4-(4-Acetyl-piperazin-1-ylmethyl)-phenyl]-3-oxo-propenyl}-phenyl)-N-hydroxy-acrylamide]
IC50 [3]: 25 nM

C[C@@H]1CN(c2ccc(C(=O)/C=C/c3ccc(/C=C/C(=O)NO)nc3)cc2)C[C@H](C)N1C [Example 39, (E)-N-Hydroxy-3-(5-{(E)-3-oxo-3-[4-((3R,5S)-3,4,5-trimethyl-piperazin-1-yl)-phenyl]-propenyl}-pyridin-2-yl)-acrylamide]
Met. mouse (percentage of the compound remaining after 30 min incubation) [1]: 20.29%
Met. human (percentage of the compound remaining after 30 min incubation) [2]: 44.35%
IC50 [3]: 6.1 nM

CC(=O)N1CCN(c2ccc(C(=O)/C=C/c3ccc(/C=C/C(=O)NO)nc3)cc2)CC1 [Example 42, (E)-3-(5-{(E)-3-[4-(4-Acetyl-piperazin-1-yl)-phenyl]-3-oxo-propenyl}-pyridin-2-yl)-N-hydroxy-acrylamide]
Met. mouse (percentage of the compound remaining after 30 min incubation) [1]: 50.47%
Met. human (percentage of the compound remaining after 30 min incubation) [2]: 35.27%
IC50 [3]: 4.8 nM

C[C@@H]1CN(c2cccc(C(=O)/C=C/c3ccc(/C=C/C(=O)NO)nc3)c2)C[C@H](C)N1C [Example 43, (E)-N-Hydroxy-3-(5-{(E)-3-oxo-3-[3-((3R,5S)-3,4,5-trimethyl-piperazin-1-yl)-phenyl]-propenyl}-pyridin-2-yl)-acrylamide]
Met. mouse (percentage of the compound remaining after 30 min incubation) [1]: 42.45%
Met. human (percentage of the compound remaining after 30 min incubation) [2]: 37.29%
IC50 [3]: 4 nM

CN1CCC(Cc2ccc(C(=O)/C=C/c3ccc(/C=C/C(=O)NO)nc3)cc2)CC1 [Example 44, (E)-N-Hydroxy-3-(5-{(E)-3-[4-(1-methyl-piperidin-4-ylmethyl)-phenyl]-3-oxo-propenyl}-pyridin-2-yl)-acrylamide]
Met. mouse (percentage of the compound remaining after 30 min incubation) [1]: 54.56%
Met. human (percentage of the compound remaining after 30 min incubation) [2]: 34.38%
IC50 [3]: 1.3 nM

O=C(/C=C/c1ccc(/C=C/C(=O)c2ccc(N3CCNCC3)cc2)cn1)NO [Example 45, (E)-N-Hydroxy-3-{5-[(E)-3-oxo-3-(4-piperazin-1-yl-phenyl)-propenyl]-pyridin-2-yl}-acrylamide]
Met. mouse (percentage of the compound remaining after 30 min incubation) [1]: 43.41%
Met. human (percentage of the compound remaining after 30 min incubation) [2]: 53.65%
IC50 [3]: 0.7 nM

CN1CCN(Cc2ccccc2C(=O)/C=C/c2ccc(/C=C/C(=O)NO)nc2)CC1 [Example 47, (E)-N-Hydroxy-3-(5-{(E)-3-[2-(4-methyl-piperazin-1-ylmethyl)-phenyl]-3-oxo-propenyl}-pyridin-2-yl)-acrylamide]
Met. mouse (percentage of the compound remaining after 30 min incubation) [1]: 52.66%
Met. human (percentage of the compound remaining after 30 min incubation) [2]: 93.48%

O=C(/C=C/c1ccc(/C=C/C(=O)c2ccc(N3CCOCC3)cc2)c(F)c1)NO [Ref (*) 29, reference compound]
Met. mouse (percentage of the compound remaining after 30 min incubation) [1]: 11.17%
Met. human (percentage of the compound remaining after 30 min incubation) [2]: 20.86%
IC50 [3]: 282 nM

O=C(/C=C/c1ccc(/C=C/C(=O)c2ccc(N3CCOCC3)cc2)cc1)NO [Ref (*) 41, reference compound]
Met. mouse (percentage of the compound remaining after 30 min incubation) [1]: 2.76%
Met. human (percentage of the compound remaining after 30 min incubation) [2]: 8.66%
IC50 [3]: 238 nM

COc1cc(C(=O)/C=C/c2ccc(/C=C/C(=O)NO)cc2)ccc1CN1CCOCC1 [Ref (*) 48, reference compound]
Met. mouse (percentage of the compound remaining after 30 min incubation) [1]: 2.8%
Met. human (percentage of the compound remaining after 30 min incubation) [2]: 35.28%

CN1CCN(c2ccc(C(=O)/C=C/c3ccc(/C=C/C(=O)NO)cc3)cc2)CC1 [Ref (*) 59, reference compound]
Met. mouse (percentage of the compound remaining after 30 min incubation) [1]: 9.12%
Met. human (percentage of the compound remaining after 30 min incubation) [2]: 33.29%

O=C(/C=C/c1ccc(/C=C/C(=O)c2ccccc2)cn1)NO [Ref (*) 69, reference compound]
Met. mouse (percentage of the compound remaining after 30 min incubation) [1]: 5.65%
Met. human (percentage of the compound remaining after 30 min incubation) [2]: 13.74%

O=C(/C=C/c1ccc(/C=C/C(=O)c2cccs2)cn1)NO [Ref (*) 71, reference compound]
Met. mouse (percentage of the compound remaining after 30 min incubation) [1]: 6.04%
Met. human (percentage of the compound remaining after 30 min incubation) [2]: 21.82%
IC50 [3]: 67.5 nM

O=C(/C=C/c1ccc(/C=C/C(=O)c2ccc(F)c(F)c2)cn1)NO [Ref (*) 72, reference compound]
Met. mouse (percentage of the compound remaining after 30 min incubation) [1]: 10.83%
Met. human (percentage of the compound remaining after 30 min incubation) [2]: 15.32%
IC50 [3]: 20 nM

— patent US20100113438A1, “CLASS OF HISTONE DEACETYLASE INHIBITORS” (DAC S.R.L., priority 2006, published 2010)
